Consider 23 molecules from patent publication US9546152B2 (MERCK SHARP & DOHME CORP., priority 2012, dated 2017).

What is called IC50 is the midpoint of a concentration-inhibition curve.

Assay [1] addresses T1, human orexin-2 receptor (Homo sapiens (Human), UniProt O43614). Description: FLIPR Ca2+ Flux Assay, orexin-2 receptor. The assay is classed as cell-based. As to conditions: CHO cells expressing the human orexin-2 receptor; agonist 70 pM Ala-6,12 human orexin-A; read-out: hOX2R FLIPR IC50. Summed up:
(§1)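 CHO cells expressing rat OX1 or human OX2 receptor, Fluo-4AM loaded; compounds preincubated 5 min, then challenged with 70 pM Ala-6,12 human orexin-A in HBSS/20 mM HEPES/0.1% BSA/2.5 mM probenecid, pH 7.4. FLIPR fluorescence peak height over 5 min compared with agonist-only response.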
A general note: A change in cytosolic calcium serves as a functional read-out for many receptors and channels.

The target in assay [2] is T1, human orexin-2 receptor. Description: radioligand binding assay, orexin-2 receptor. Particulars: membranes prepared from CHO cells expressing the OX2 receptor; read-out: hOX2R BIND hKi.
The target in another assay is rat orexin-1 receptor (Rattus norvegicus (Rat), UniProt P56718). The assay is described as follows: FLIPR Ca2+ Flux Assay, orexin-1 receptor. The assay is classed as cell-based. Particulars: CHO cells expressing the rat orexin-1 receptor; agonist 70 pM Ala-6,12 human orexin-A; read-out: hOX1R FLIPR IC50. Summed up:
as §1

Sequence of rat orexin-1 receptor (P56718 whole entry): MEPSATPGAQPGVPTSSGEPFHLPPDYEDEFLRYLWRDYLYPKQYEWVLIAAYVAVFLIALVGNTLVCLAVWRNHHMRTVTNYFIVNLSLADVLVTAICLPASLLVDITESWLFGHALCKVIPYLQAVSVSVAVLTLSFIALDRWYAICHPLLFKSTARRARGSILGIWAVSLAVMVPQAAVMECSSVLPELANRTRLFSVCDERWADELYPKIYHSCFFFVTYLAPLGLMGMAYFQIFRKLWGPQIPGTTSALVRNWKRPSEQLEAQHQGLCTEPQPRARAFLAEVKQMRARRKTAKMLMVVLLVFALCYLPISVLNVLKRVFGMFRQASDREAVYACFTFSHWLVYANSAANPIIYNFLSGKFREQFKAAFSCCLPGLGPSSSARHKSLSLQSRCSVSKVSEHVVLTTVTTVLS
T1 sequence (O43614 whole entry): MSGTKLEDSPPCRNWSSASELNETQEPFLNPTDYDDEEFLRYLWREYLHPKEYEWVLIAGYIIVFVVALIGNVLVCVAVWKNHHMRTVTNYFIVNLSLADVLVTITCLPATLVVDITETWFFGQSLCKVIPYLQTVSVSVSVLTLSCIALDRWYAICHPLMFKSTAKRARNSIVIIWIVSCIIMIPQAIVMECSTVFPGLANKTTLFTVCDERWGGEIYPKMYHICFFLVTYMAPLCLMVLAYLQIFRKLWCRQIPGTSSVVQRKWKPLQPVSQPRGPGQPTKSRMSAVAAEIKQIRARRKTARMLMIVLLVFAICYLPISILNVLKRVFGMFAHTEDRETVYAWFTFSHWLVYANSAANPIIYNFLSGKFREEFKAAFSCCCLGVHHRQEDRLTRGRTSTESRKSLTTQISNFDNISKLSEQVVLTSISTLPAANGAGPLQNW

For `Cc1c(C#N)ccnc1O[C@@H]1CC[C@@H](C)N(C(=O)c2ccccc2Oc2ccccc2)C1` [Example 30, 3-methyl-2-({(3R,6R)-6-methyl-1-[(2-phenoxyphenyl)carbonyl]piperidin-3-yl}oxy)pyridine-4-carbonitrile], the IC50 on human orexin-2 receptor [1] is 46 nM; on rat orexin-1 receptor it was over 10000 nM. Further, the Ki at human orexin-2 receptor [2] is 2.3 nM.

For `Cc1cccc(-n2nccn2)c1C(=O)N1C[C@H](Oc2nccc(C#N)c2C)CC[C@H]1C` [Example 15, 3-methyl-2-{[(3R,6R)-6-methyl-1-{[2-methyl-6-(2H-1,2,3-triazol-2-yl)phenyl]carbonyl}piperidin-3-yl]oxy}pyridine-4-carbonitrile], the IC50 was found to be 12 nM on human orexin-2 receptor [1] and 693 nM on rat orexin-1 receptor. For the same molecule, the Ki on human orexin-2 receptor [2] stood at 0.2 nM.

In the case of `COc1ccc(C(=O)N2C[C@H](Oc3nccc(C#N)c3C)CC[C@H]2C)c(SC)n1` [Example 84, 2-{[(3R,6R)-1-{[6-Methoxy-2-(methylsulfanyl)pyridin-3-yl]carbonyl}-6-methylpiperidin-3-yl]oxy}-3-methylpyridine-4-carbonitrile], the results for the IC50 at human orexin-2 receptor [1] and on rat orexin-1 receptor were 22 nM and over 10000 nM, respectively. For the same molecule, the Ki at human orexin-2 receptor [2] was 2 nM.

For `COc1ccc(C(=O)N2C[C@H](Oc3nccc(C#N)c3C)CC[C@H]2C)c(N(C)C)n1` [Example 87, 2-{[(3R,6R)-1-{[2-(Dimethylamino)-6-methoxypyridin-3-yl]carbonyl}-6-methylpiperidin-3-yl]oxy}-3-methylpyridine-4-carbonitrile], the IC50 is 69 nM on human orexin-2 receptor [1] and over 10000 nM at rat orexin-1 receptor. Further, the Ki on human orexin-2 receptor [2] amounted to 9 nM.

For `COc1c(C#N)ccnc1O[C@@H]1CC[C@@H](C)N(C(=O)c2ccccc2-c2ncccn2)C1` [Example 107, 3-methoxy-2-({(3R,6R)-6-methyl-1-[(2-pyrimidin-2-ylphenyl)carbonyl]piperidin-3-yl}oxy)pyridine-4-carbonitrile], the concentration for half-maximal inhibition (IC50) on human orexin-2 receptor [1] was 33 nM; on rat orexin-1 receptor, 2750 nM. For the same molecule, the Ki at human orexin-2 receptor [2] was 0.4 nM.

For `Cc1c(C#N)ccnc1O[C@@H]1CC[C@@H](C)N(C(=O)c2cc(F)ncc2-c2cncs2)C1` [Example 25, 2-{[(3R,6R)-1-{[2-fluoro-5-(1,3-thiazol-5-yl)pyridin-4-yl]carbonyl}-6-methylpiperidin-3-yl]oxy}-3-methylpyridine-4-carbonitrile], the values for the IC50 at human orexin-2 receptor [1] and on rat orexin-1 receptor were 43 nM and over 10000 nM, respectively. Moreover, on human orexin-2 receptor [2], the Ki worked out at 6.1 nM.

On to `C=Cc1ccc(C(=O)N2C[C@H](Oc3nccc(C#N)c3C)CC[C@H]2C)c(-n2nccn2)n1` [Example 90, 2-{[(3R,6R)-1-{[6-ethenyl-2-(2H-1,2,3-triazol-2-yl)pyridin-3-yl]carbonyl}-6-methylpiperidin-3-yl]oxy}-3-methylpyridine-4-carbonitrile], for which the 50% inhibitory concentration (IC50) was 88 nM at human orexin-2 receptor [1] and over 10000 nM on rat orexin-1 receptor. The Ki on human orexin-2 receptor [2] is 12.9 nM.

As for `Cc1nsc(-c2ccccc2)c1C(=O)N1C[C@H](Oc2nccc(C#N)c2C)CC[C@H]1C` [Example 47, 3-methyl-2-({(3R,6R)-6-methyl-1-[(3-methyl-5-phenylisothiazol-4-yl)carbonyl]piperidin-3-yl}oxy)pyridine-4-carbonitrile], the IC50 at human orexin-2 receptor [1] is 82 nM; on rat orexin-1 receptor it was 2360 nM. Besides, at human orexin-2 receptor [2], the Ki was 4.9 nM.

Regarding `Cc1c(C#N)ccnc1O[C@@H]1CC[C@@H](C)N(C(=O)c2ccsc2-c2nccs2)C1` [Example 32, 3-methyl-2-{[(3R,6R)-6-methyl-1-{[2-(1,3-thiazol-2-yl)thiophen-3-yl]carbonyl}piperidin-3-yl]oxy}pyridine-4-carbonitrile], the IC50 worked out at 29 nM at human orexin-2 receptor [1] and 1880 nM on rat orexin-1 receptor. Also, the Ki on human orexin-2 receptor [2] came out at 0.7 nM.

As to `Cc1cnn(-c2ccccc2C(=O)N2C[C@H](Oc3nccc(C#N)c3C)CC[C@H]2C)c1` [Example 43, 3-methyl-2-{[(3R,6R)-6-methyl-1-{[2-(4-methyl-1H-pyrazol-1-yl)phenyl]carbonyl}piperidin-3-yl]oxy}pyridine-4-carbonitrile], the figures for the IC50 at human orexin-2 receptor [1] and on rat orexin-1 receptor were 10 nM and 722 nM, respectively. The Ki at human orexin-2 receptor [2] was determined as 0.9 nM.

Consider `Cc1c(C#N)ccnc1O[C@@H]1CC[C@@H](C)N(C(=O)c2ccccc2-c2cnn(C)c2)C1` [Example 36, 3-methyl-2-{[(3R,6R)-6-methyl-1-{[2-(1-methyl-1H-pyrazol-4-yl)phenyl]carbonyl}piperidin-3-yl]oxy}pyridine-4-carbonitrile], for which the IC50 was determined as 20 nM at human orexin-2 receptor [1] and 2380 nM at rat orexin-1 receptor. Also, at human orexin-2 receptor [2], the Ki worked out at 1.5 nM.

For the molecule `Cc1ccc(C(=O)N2C[C@H](Oc3nccc(C#N)c3C)CC[C@H]2C)c(-n2nccn2)c1` [Example 8, 3-methyl-2-{[(3R,6R)-6-methyl-1-{[4-methyl-2-(2H-1,2,3-triazol-2-yl)phenyl]carbonyl}piperidin-3-yl]oxy}pyridine-4-carbonitrile], the IC50 at human orexin-2 receptor [1] worked out at 11 nM; at rat orexin-1 receptor, 861 nM. Further, the Ki at human orexin-2 receptor [2] turned out to be 0.6 nM.

Take `Cc1c(C#N)ccnc1O[C@@H]1CC[C@@H](C)N(C(=O)c2cc(F)cnc2-c2nccs2)C1` [Example 35, 2-{[(3R,6R)-1-{[5-fluoro-2-(1,3-thiazol-2-yl)pyridin-3-yl]carbonyl}-6-methylpiperidin-3-yl]oxy}-3-methylpyridine-4-carbonitrile]: the IC50 on human orexin-2 receptor [1] was 13 nM; at rat orexin-1 receptor it was 453 nM. Further, at human orexin-2 receptor [2], the Ki is 0.3 nM.

Turning to `COc1ccc(C(=O)N2C[C@H](Oc3nccc(C#N)c3C)CC[C@H]2C)c(-c2ccccn2)n1` [Example 83, 2-({(3R,6R)-1-[(6-methoxy-2,2′-bypyridin-3-yl)carbonyl]-6-methylpiperidin-3-yl}oxy)-3-methylpyridine-4-carbonitrile], the IC50 at human orexin-2 receptor [1] was 64.6 nM; on rat orexin-1 receptor, 10000 nM. Moreover, the Ki on human orexin-2 receptor [2] was 0.84 nM.

In the case of `Cc1ccc(-n2nccn2)c(C(=O)N2C[C@H](Oc3nccc(C#N)c3C)CC[C@H]2C)c1` [Example 6, 3-methyl-2-{[(3R,6R)-6-methyl-1-{[5-methyl-2-(2H-1,2,3-triazol-2-yl)phenyl]carbonyl}piperidin-3-yl]oxy}pyridine-4-carbonitrile], the IC50 on human orexin-2 receptor [1] is 7 nM; on rat orexin-1 receptor, 292 nM. Further, the Ki on human orexin-2 receptor [2] came to 0.6 nM.

`Cc1c(C#N)ccnc1O[C@@H]1CC[C@@H](C)N(C(=O)c2cn(C)nc2-c2nccs2)C1` [Example 46, 3-methyl-2-{[(3R,6R)-6-methyl-1-{[1-methyl-3-(1,3-thiazol-2-yl)-1H-pyrazol-4-yl]carbonyl}piperidin-3-yl]oxy}pyridine-4-carbonitrile]: the IC50 on human orexin-2 receptor [1] is 111 nM; on rat orexin-1 receptor, over 10000 nM. For the same molecule, the Ki on human orexin-2 receptor [2] is 14.2 nM.

Regarding `Cc1c(C#N)ccnc1O[C@@H]1CC[C@@H](C)N(C(=O)c2ccc(F)cc2-c2nccs2)C1` [Example 34, 2-{[(3R,6R)-1-{[4-fluoro-2-(1,3-thiazol-2-yl)phenyl]carbonyl}-6-methylpiperidin-3-yl]oxy}-3-methylpyridine-4-carbonitrile], the IC50 on human orexin-2 receptor [1] was 9 nM; at rat orexin-1 receptor, 702 nM. The Ki at human orexin-2 receptor [2] amounted to 0.2 nM.

For `Cc1c(C#N)ccnc1O[C@@H]1CC[C@@H](C)N(C(=O)c2ccccc2-n2nccn2)C1` [Example 1, 3-Methyl-2-{[(3R,6R)-6-methyl-1-{[2-(2H-1,2,3-triazol-2-yl)phenyl]carbonyl}piperidin-3-yl]oxy}pyridine-4-carbonitrile], the IC50 was 8 nM at human orexin-2 receptor [1] and 996 nM at rat orexin-1 receptor. For the same molecule, on human orexin-2 receptor [2], the Ki was determined as 0.4 nM.

With `Cc1c(C#N)ccnc1O[C@@H]1CC[C@@H](C)N(C(=O)c2sccc2-c2ncccn2)C1` [Example 75, 3-methyl-2-({(3R,6R)-6-methyl-1-[(3-pyrimidin-2-ylthiophen-2-yl)carbonyl]piperidin-3-yl}oxy)pyridine-4-carbonitrile], the values for the half-maximal inhibitory concentration (IC50) on human orexin-2 receptor [1] and at rat orexin-1 receptor were 15 nM and 1400 nM, respectively. For the same molecule, at human orexin-2 receptor [2], the Ki is 0.8 nM.

Regarding `Cc1c(C#N)ccnc1O[C@@H]1CC[C@@H](C)N(C(=O)c2cnccc2-n2nccn2)C1` [Example 10, 3-methyl-2-{[(3R,6R)-6-methyl-1-{[4-(2H-1,2,3-triazol-2-yl)pyridin-3-yl]carbonyl}piperidin-3-yl]oxy}pyridine-4-carbonitrile], the IC50 on human orexin-2 receptor [1] is 55 nM; at rat orexin-1 receptor, 7070 nM. Also, at human orexin-2 receptor [2], the Ki stood at 8.1 nM.

With `Cc1c(C#N)ccnc1O[C@@H]1CC[C@@H](C)N(C(=O)c2cccnc2-c2ccccc2)C1` [Example 60, 3-methyl-2-({(3R,6R)-6-methyl-1-[(2-phenylpyridin-3-yl)carbonyl]piperidin-3-yl}oxy)pyridine-4-carbonitrile], the figures for the IC50 at human orexin-2 receptor [1] and on rat orexin-1 receptor were 26 nM and 4670 nM, respectively. Further, the Ki on human orexin-2 receptor [2] stood at 2.6 nM.

For the molecule `Cc1cccc(C(=O)N2C[C@H](Oc3nccc(C#N)c3C)CC[C@H]2C)c1-n1nccn1` [Example 13, 3-methyl-2-{[(3R,6R)-6-methyl-1-{[3-methyl-2-(2H-1,2,3-triazol-2-yl)phenyl]carbonyl}piperidin-3-yl]oxy}pyridine-4-carbonitrile], the IC50 at human orexin-2 receptor [1] amounted to 9 nM; on rat orexin-1 receptor, 215 nM. Moreover, the Ki at human orexin-2 receptor [2] stood at 0.2 nM.

On to `CCOc1ccccc1C(=O)N1C[C@H](Oc2nccc(C#N)c2C)CC[C@H]1C` [Example 19, 2-({(3R,6R)-1-[(2-ethoxyphenyl)carbonyl]-6-methylpiperidin-3-yl}oxy)-3-methylpyridine-4-carbonitrile], for which the half-inhibitory concentration (IC50) was determined as 6 nM at human orexin-2 receptor [1] and 2100 nM at rat orexin-1 receptor. The Ki at human orexin-2 receptor [2] amounted to 0.7 nM.
